Measured values taken from paper PMC10653547, “Synergistic effect of two antimicrobial peptides, BP203 and MAP-0403 J-2 with conventional antibiotics against colistin-resistant Escherichia coli and Klebsiella pneumoniae clinical isolates” (PLOS ONE, 2023).

How the values were obtained:
[1] = system: colistin-resistant E. coli clinical isolates; test: Disk diffusion antimicrobial susceptibility testing (CLSI); assay type: cell-based, Escherichia coli; conditions: for %Resistance: ten E. coli isolates, disk diffusion
Experimental: (§1) Ten non-duplicate clinical isolates of colistin-resistant E. coli (EC) and ten non-duplicate clinical isolates of colistin-resistant K. pneumoniae (KP) were obtained from the bacterial repository of the Division of Infectious Diseases and Tropical Medicine, Department of Medicine, Faculty of Medicine Siriraj Hospital, Mahidol University. The species identification was conducted through standard biochemical tests. Antimicrobial susceptibility testing was carried out using the disk diffusion method following CLSI guidelines. Additionally, the assessment of colistin resistance in all isolates was performed by broth microdilution following CLSI recommendations. […] The amino acid sequences of BP203 and MAP-0403 J-2 were retrieved from previous studies. These peptides are BP100 and MAP-0403 analogs, respectively. […] Antibiotic disks and defibrinated sheep blood were obtained from Oxoid (Basingstoke, UK). All culture media were purchased from Becton Dickinson (Frankin Lakes, NJ, USA). All chemicals were obtained from Sigma-Aldrich (St. Louis, MO, USA).

[2] = system: colistin-resistant K. pneumoniae clinical isolates; test: as above; assay type: cell-based, Klebsiella pneumoniae; conditions: for %Resistance: ten K. pneumoniae isolates, disk diffusion; for Interpreted results of disk diffusion: key: R: resistant; I: intermediate; SDD: susceptible-dose dependent; S: sensitive
Experimental: as §1

Structure (SMILES) | Interpreted results of disk diffusion ([1]; EC-01) | Interpreted results of disk diffusion ([1]; EC-02) | Interpreted results of disk diffusion ([1]; EC-03) | Interpreted results of disk diffusion ([1]; EC-04) | Interpreted results of disk diffusion ([1]; EC-05) | Interpreted results of disk diffusion ([1]; EC-06) | Interpreted results of disk diffusion ([1]; EC-07) | Interpreted results of disk diffusion ([1]; EC-08) | Interpreted results of disk diffusion ([1]; EC-09) | Interpreted results of disk diffusion ([1]; EC-10) | %Resistance [1] | Interpreted results of disk diffusion ([2]; KP-01) | Interpreted results of disk diffusion ([2]; KP-02) | Interpreted results of disk diffusion ([2]; KP-03) | Interpreted results of disk diffusion ([2]; KP-04) | Interpreted results of disk diffusion ([2]; KP-05) | Interpreted results of disk diffusion ([2]; KP-06) | Interpreted results of disk diffusion ([2]; KP-07) | Interpreted results of disk diffusion ([2]; KP-08) | %Resistance [2] | other results
NCC[C@H](O)C(=O)N[C@@H]1C[C@H](N)[C@@H](O[C@H]2O[C@H](CN)[C@@H](O)[C@H](O)[C@H]2O)[C@H](O)[C@H]1O[C@H]1O[C@H](CO)[C@@H](O)[C@H](N)[C@H]1O [AK, amikacin] | S | S | S | S | S | S | S | S | S | S | 0% | S | R | R | R | I | R | S | S | 40% | Interpreted results of disk diffusion ([2]; KP-09): S; Interpreted results of disk diffusion ([2]; KP-10): S
C[C@H]1[C@H](NC(=O)/C(=N\OC(C)(C)C(=O)O)c2csc(N)n2)C(=O)N1S(=O)(=O)O [ATM, aztreonam] | R | R | R | R | S | I | R | S | R | R | 70% | – | – | – | – | – | – | – | – | 100% | –
CO/N=C(\C(=O)N[C@@H]1C(=O)N2C(C(=O)O)=C(CSc3nc(=O)c(=O)[nH]n3C)CS[C@H]12)c1csc(N)n1 [CRO, ceftriaxone] | R | R | R | R | R | R | R | R | R | R | 100% | R | R | R | R | R | R | R | R | 100% | Interpreted results of disk diffusion ([2]; KP-09): R; Interpreted results of disk diffusion ([2]; KP-10): R
C[C@@H](O)[C@H]1C(=O)N2C(C(=O)O)=C(S[C@@H]3CN[C@H](C(=O)Nc4cccc(C(=O)O)c4)C3)[C@H](C)[C@H]12 [ETP, ertapenem] | S | S | S | S | S | S | S | S | S | S | 0% | R | R | R | R | R | R | R | R | 100% | Interpreted results of disk diffusion ([2]; KP-09): R; Interpreted results of disk diffusion ([2]; KP-10): R
CO/N=C(\C(=O)N[C@@H]1C(=O)N2C(C(=O)[O-])=C(C[N+]3(C)CCCC3)CS[C@H]12)c1csc(N)n1 [FEP, cefepime] | R | R | R | R | SDD | S | R | SDD | R | R | 70% | R | R | R | R | R | R | R | R | 100% | Interpreted results of disk diffusion ([2]; KP-09): R; Interpreted results of disk diffusion ([2]; KP-10): R
C[C@@H]1O[C@@H]1P(=O)(O)O [FOS, fosfomycin] | S | S | S | R | S | S | S | S | S | S | 10% | S | R | I | R | S | R | S | R | 60% | Interpreted results of disk diffusion ([2]; KP-09): R; Interpreted results of disk diffusion ([2]; KP-10): R
CO[C@@]1(NC(=O)Cc2cccs2)C(=O)N2C(C(=O)O)=C(COC(N)=O)CS[C@@H]21 [FOX, cefoxitin] | S | S | S | I | S | S | S | S | S | S | 0% | R | R | R | R | R | R | R | R | 100% | Interpreted results of disk diffusion ([2]; KP-09): R; Interpreted results of disk diffusion ([2]; KP-10): R
CNC(C)C1CCC(N)C(OC2C(N)CC(N)C(OC3OCC(C)(O)C(NC)C3O)C2O)O1 (stereo not shown) [GM, gentamicin] | R | S | R | R | R | R | S | R | R | R | 80% | S | R | S | S | S | S | S | S | 10% | Interpreted results of disk diffusion ([2]; KP-09): S; Interpreted results of disk diffusion ([2]; KP-10): S
